US20180055816A1, “PYRANONAPHTHOQUINONE COMPOUNDS AND METHODS OF USE THEREOF” (University of Kentucky Research Foundation, priority 2016, published 2018)

Molecular target: T1, Grx3 (Homo sapiens, UniProt O76003)
T1 construct: endogenous in cells; host or cells: HeLa cell lysates; HCT116 cell lysates
T1 sequence (O76003 1-335): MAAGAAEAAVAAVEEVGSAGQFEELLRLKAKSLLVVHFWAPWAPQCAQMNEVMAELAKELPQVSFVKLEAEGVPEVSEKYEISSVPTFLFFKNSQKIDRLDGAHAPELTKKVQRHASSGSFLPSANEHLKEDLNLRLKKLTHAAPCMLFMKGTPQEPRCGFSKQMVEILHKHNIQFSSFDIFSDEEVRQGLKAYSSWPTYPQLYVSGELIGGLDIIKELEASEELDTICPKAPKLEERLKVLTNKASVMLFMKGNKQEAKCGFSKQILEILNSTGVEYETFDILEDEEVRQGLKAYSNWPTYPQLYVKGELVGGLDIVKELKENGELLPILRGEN
Assay: Affinity pull-down / binding to Grx3
Details: streptavidin pull-down, competition, Western blot
Protocol: The precipitates were resolved by SDS-PAGE, and the gel was stained with Coomassie blue. (C) Sequences illustrating amino acids and peptides of Prx1 and Grx3 identified by mass spectrometry analysis. The unique bands as shown by d7-pull down in the experiment for FIG. 20B were excised and subjected to in-gel tryptic digestion and analysis by MS, wherein the identified amino acids and peptides are shown in red characters. (D) Western blot illustrating that HCT116 cell lysates were incubated with different concentrations of d5 or d7 in the absence or presence of a ten-fold excess of FB for 3 h, followed by pull-down with streptavidin-agarose and Western blot analysis for the indicated proteins.
FIGS. 21A-D show images illustrating that the active probe d7 binds to and co-localizes with Prx1 and Grx3. (A) and (B) The recombinant Prx1 (A) or Grx3 (B) was incubated with d7 for 2 hours, followed by streptavidin pull down and Western blot analysis for the indicated proteins. (C) and (D) HCT116 cells were incubated with 25 μM d5, 25 μM d7 or DMSO as control for 5 hours, followed by confocal sections of the cells staining for Prx1 (C) or Grx3 (D) (red), biotin (green) and DAPI (blue). Scale bars, 10 μm.
HeLa cell pellets were purchased from National Cell Culture Center (Minneapolis, Minn.) and lysed in 20 ml of the NP-40 lysis buffer. […]

binding to Grx3: directly targets
Compound: CCCC1OC2CC(=O)OC2C2=C1C(=O)c1c(O)cccc1C2=O (stereo not shown) [FB, frenolicin B]
